In patent US9840478B2 (MERCK SHARP & DOHME CORP., priority 2013, dated 2017):

What was measured:
wildtype HIV-1 protease = target: T1, wildtype HIV-1 protease (Human immunodeficiency virus type 1 group M subtype B, UniProt P04585); experiment: Assay for inhibition of microbial expressed HIV protease (Pepcleav); format: biochemical; conditions: wildtype HIV-1 protease expressed in E. coli; peptide substrate; mean of at least two independent experiments
T1 construct: preincubated with the HIV-1 protease (wild type) enzyme in assay buffer; made in house; host or cells: Escherichia coli
Description: Assay for Inhibition of Microbial Expressed HIV Protease (“Pepcleav”)
Studies of the inhibition of the wildtype HIV-1 protease (which was expressed in Escherichia coli) were carried out with a peptide substrate [Val-Ser-Gln-Asn-(βnaphtyl)Ala-Pro-Ile-Val]. The inhibitor is first preincubated with the HIV-1 protease (wild type) enzyme in assay buffer (50 mM sodium acetate, pH 5.5, 100 mM NaCl, and 0.1% BSA) for 30 minutes at room temperature. Substrate is added to 400 micromolar in a total volume of 20 microliters containing 20 picomolar HIV-1 protease (final) and the reaction is incubated for 1 hour at 30° C. The reaction is quenched with the addition of formic acid and indinavir to 0.012% and 150 nM final concentrations, respectively. The product formation is determined after separation of product and substrate on a Zorbax Eclipse XDB-C18 column connected to an API 4000 mass spectrometer (Applied Biosystems) with multiple reaction monitoring (transitions were 644.5/428.9 and 615.4/422.2 (M1/M3) for product and indinavir respectively). The extent of inhibition of the reaction is determined from the peak area of the products. Analysis of the products, independently synthesized, provided quantitation standards and confirmation of the product composition.

HIV-1 (H9IIIB strain) = experiment: Cell-based HIV infection assay using a reporter (Cell-Based), MT4-GFP cells; conditions: Human immunodeficiency virus 1, MT4-GFP cells infected with HIV-1 H9IIIB; 50% normal human serum; mean of at least two independent experiments; read-out: Cell-based IP
Outline: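 IC50 from 4-parameter dose-response of % viral growth inhibition, using the 48 h/24 h infected-cell ratio scaled between DMSO and a protease/integrase/NNRTI triple-drug control. Assay used MT4 cells with HIV-LTR-GFP reporter, pre-infected 24 h with HIV-1 H9IIIB, in 50% normal human serum.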

SMILES | IC50 (wildtype HIV-1 protease) | IC50 (HIV-1 (H9IIIB strain))
CS(=O)(=O)N1CCNC[C@@H]1CCc1c(F)cncc1NC(=O)[C@@H](N)C(c1ccc(F)cc1)c1ccc(F)cc1 [Example 1, 2S-Amino-3,3-di-(4-fluorophenyl)-N-(5-fluoro-4-(2-(1-methylsulfonylpiperazin-2-yl)ethyl)pyridin-3-yl)propanamide] | 9.7 nM | 67 nM
COC(=O)N[C@H](C(=O)Nc1cccc(F)c1CC[C@H]1CNCCN1S(=O)(=O)c1ccccc1)C(c1cccc(F)c1)c1cccc(F)c1 [Example 3, Methyl ((S)-1-((3-fluoro-2-(2-((S)-1-(phenylsulfonyl)piperazin-2-yl)ethyl)phenyl)amino)-3,3-bis(3-fluorophenyl)-1-oxopropan-2-yl)carbamate] | 0.48 nM | 4 nM
CS(=O)(=O)N1CCNC[C@@H]1CCc1c(F)cncc1NC(=O)[C@@H](N)[C@@H](c1ccc(F)cc1)c1cc(F)cc(F)c1 [Example 26, (2S,3S)-2-amino-3-(3,5-difluorophenyl)-N-(5-fluoro-4-(2-((S)-1-(methylsulfonyl)piperazin-2-yl)ethyl)pyridin-3-yl)-3-(4-fluorophenyl)propanamide] | 3.5 nM | 
O=C(C[C@@H](c1ccc(F)cc1)c1cc(F)cc(F)c1)Nc1cncc(F)c1CC[C@H]1CNCCN1S(=O)(=O)N1CC[C@@H](NC(=O)C(F)(F)F)C1 [Example 338, (3S)-3-(3,5-difluorophenyl)-3-(4-fluorophenyl)-N-(5-fluoro-4-{2-[(2S)-1-({(3R)-3-[(trifluoroacetyl)amino]pyrrolidin-1-yl}sulfonyl)piperazin-2-yl]ethyl}pyridin-3-yl)propanamide] | 130 nM | 660 nM
CS(=O)(=O)NC1CCN(S(=O)(=O)N2CCNC[C@@H]2CCc2c(F)cncc2NC(=O)C[C@@H](c2ccc(F)cc2)c2cc(F)cc(F)c2)CC1 [Example 334, (3S)-3-(3,5-difluorophenyl)-N-(5-fluoro-4-{2-[(2S)-1-({4-[(methylsulfonyl)amino]piperidin-1-yl}sulfonyl)piperazin-2-yl]ethyl}pyridin-3-yl)-3-(4-fluorophenyl)propanamide] | 10 nM | 450 nM
CS(=O)(=O)C1CCN(S(=O)(=O)N2CCNC[C@@H]2CCc2c(F)cncc2NC(=O)C[C@@H](c2ccc(F)cc2)c2cc(F)cc(F)c2)CC1 [Example 336, (3S)-3-(3,5-difluorophenyl)-N-(5-fluoro-4-{2-[(2S)-1-{[4-(methylsulfonyl)piperidin-1-yl]sulfonyl}piperazin-2-yl]ethyl}pyridin-3-yl)-3-(4-fluorophenyl)propanamide] | 13 nM | 240 nM
Nc1ccc(S(=O)(=O)N2CCNC[C@@H]2CCc2c(F)cncc2NC(=O)[C@@H](N)C(c2ccc(F)cc2)c2ccc(F)cc2)cc1 [Example 24, (S)-2-amino-N-(4-(2-((S)-1-((4-aminophenyl)sulfonyl)piperazin-2-yl)ethyl)-5-fluoropyridin-3-yl)-3,3-bis(4-fluorophenyl) propanamide] | 0.2 nM | 
N[C@H](C(=O)Nc1cccc(F)c1CC[C@H]1CNCCN1S(=O)(=O)c1ccccc1)C(c1cccc(F)c1)c1cccc(F)c1 [Example 40, 3-fluoro-β-(3-fluorophenyl)-N-(3-fluoro-2-{2-[(2S)-1-(phenylsulfonyl)piperazin-2-yl]ethyl}phenyl)-L-phenylalaninamide] | 0.03 nM | 4.8 nM
N[C@H](C(=O)Nc1cncc(F)c1CCC1CNCCN1S(=O)(=O)Cc1ccccc1)C(c1ccc(F)cc1)c1ccc(F)cc1 (stereo partly drawn) [Example 21, N-(4-{2-[1-(benzylsulfonyl)piperazin-2-yl]ethyl}-5-fluoropyridin-3-yl)-4-fluoro-β-(4-fluorophenyl)-L-phenylalaninamide] | 3.4 nM | 
CC(C)[C@H](c1ccc(F)cc1)[C@H](N)C(=O)Nc1cncc(F)c1CC[C@H]1CNCCN1S(=O)(=O)C1CC1 [Example 64, (βR)-N-(4-{2-[(2S)-1-(cyclopropylsulfonyl)piperazin-2-yl]ethyl}-5-fluoropyridin-3-yl)-4-fluoro-β-(1-methylethyl)-L-phenylalaninamide] | 70 nM | 95 nM
N[C@H](C(=O)Nc1cncc(F)c1CC[C@H]1CNCCN1S(=O)(=O)c1ccccc1)C(c1ccc(F)cc1)c1ccc(F)cc1 [Example 22, (S)-2-amino-N-(5-fluoro-4-(2-((S)-1-(phenylsulfonyl)piperazin-2-yl)ethyl)pyridin-3-yl)-3,3-bis(4-fluorophenyl)propanamide] | 0.2 nM | 10 nM
O=C(CC1(c2ccccc2)CCCNC1)Nc1cncc(F)c1CC[C@H]1CNCCN1S(=O)(=O)C1CC1 (stereo partly drawn) [Example 63, N-(4-{2-[(2S)-1-(cyclopropylsulfonyl)piperazin-2-yl]ethyl}-5-fluoropyridin-3-yl)-2-(3-phenylpiperidin-3-yl)acetamide] | 1300 nM | 
CS(=O)(=O)N1CCNC[C@H]1CCc1c(F)cncc1NC(=O)[C@@H](N)C(c1ccc(F)cc1)c1ccc(F)cc1 [Example 2, 2S-Amino-3,3-di-(4-fluorophenyl)-N-(5-fluoro-4-(2-(1-methylsulfonylpiperazin-2-yl)ethyl)pyridin-3-yl)propanamide] | 1400 nM | 
N[C@H](C(=O)Nc1cncc(F)c1CC[C@@H]1CNCCN1S(=O)(=O)c1ccccc1)C(c1ccc(F)cc1)c1ccc(F)cc1 [Example 23, (S)-2-amino-N-(5-fluoro-4-(2-((R)-1-(phenylsulfonyl)piperazin-2-yl)ethyl)pyridin-3-yl)-3,3-bis(4-fluorophenyl) propanamide] | 10 nM | 
Nc1ccc(S(=O)(=O)N2CCNC[C@H]2CCc2c(F)cncc2NC(=O)[C@@H](N)C(c2ccc(F)cc2)c2ccc(F)cc2)cc1 [Example 25, (S)-2-amino-N-(4-(2-((R)-1-((4-aminophenyl)sulfonyl)piperazin-2-yl)ethyl)-5-fluoropyridin-3-yl)-3,3-bis(4-fluorophenyl) propanamide] | 1.3 nM | 
O=C(C[C@@H](c1ccc(F)cc1)c1cc(F)cc(F)c1)Nc1cncc(F)c1CC[C@H]1CNCCN1C(=O)Nc1ccccc1 [Example 342, (2S)-2-[2-(3-{[(3S)-3-(3,5-difluorophenyl)-3-(4-fluorophenyl)propanoyl]amino}-5-fluoropyridin-4-yl)ethyl]-N-phenylpiperazine-1-carboxamide] | 250 nM | 
C[C@H]1CNC[C@H](CCc2c(F)cccc2NC(=O)[C@@H](N)[C@@H](c2cc(F)cc(F)c2)C2CCOCC2)N1S(=O)(=O)c1ccccc1 [Example 294, (βR)-3,5-difluoro-N-(3-fluoro-2-{2-[(2S,6S)-6-methyl-1-(phenylsulfonyl)piperazin-2-yl]ethyl}phenyl)-β-(tetrahydro-2H-pyran-4-yl)-L-phenylalaninamide] |  | 40 nM
C[C@@H]1CN(S(=O)(=O)c2ccccc2)[C@@H](CCc2c(F)cccc2NC(=O)[C@@H](N)[C@@H](c2ccc(Cl)cc2)c2cccc(OC(F)(F)F)c2)CN1 [Example 98, (βS)-4-chloro-N-(3-fluoro-2-{2-[(2S,5R)-5-methyl-1-(phenylsulfonyl)piperazin-2-yl]ethyl}phenyl)-β-[3-(trifluoromethoxy)phenyl]-L-phenylalaninamide] |  | 350 nM
